Source: US20240299557A1, “COMPOUND FOR DEGRADING DEOXYRIBONUCLEIC ACID (DNA) POLYMERASE, AND USE THEREOF” (TAIBIDI PHARMACEUTICAL TECHNOLOGY (SHIJIAZHUANG) CO., LTD., priority 2021, published 2024)
Where a SMILES comes first, the peptide text is derived from it. The star is where a group is joined. Cbz = O=C(OCc1ccccc1)*

What was measured:
HBV P protein = biological target: T1, HBV P protein (Hepatitis B virus genotype D subtype ayw, UniProt P03156); assay: Degradation of flag-tagged HBV P protein in transfected Huh7 cells (Western Blot); type: cell-based
T1 construct: flag; expressed in transfected cells; host or cells: Huh7
Description: In vitro cell model: Huh7.
Proteasome inhibitor: MG132
The Huh7 cells cultured in the medium containing 10 μM TPD00203 drug were used to transfect the flag-tagged P protein overexpression plasmid, and the medium containing 10 μM TPD00203 drug was changed 6 hours after transfection, and MG132 (final concentration 10 μM) was added 24 hours after transfection to inhibit the degradation of P protein, and cells were harvested after MG132 treatment for 12 hours. MG132 is a reversible proteasome inhibitor. After MG132 was removed, the cells were cultured in a medium containing 10 μM TPD00203 for 12 hours, and the cells were harvested. The expression of P protein was detected by Western Blot experiment. DMSO was used as a control.

[1] = biological target: T2, HBV P protein (DNA polymerase) (Hepatitis B virus genotype D subtype ayw, UniProt P03156); assay: Degradation of HBV P protein (DNA polymerase) in Huh7-HBP cell line (Nano-Glo HiBiT/LgBiT luminescence); type: cell-based; details: read-out: Degradation activity of DNA polymerase at different concentrations of compounds; for inhibition at 0.1 µM: 100 nM; for inhibition at 0.3 µM: 300 nM; for inhibition at 1 µM: 1000 nM; for inhibition at 3 µM: 3000 nM; for inhibition at 10 µM: 10000 nM
T2 construct: expressed in transfected cells; host or cells: Huh7-LgBiT cells transduced with pLVX-HBP-Puro lentivirus (Huh7-HBP)
Description: The transfected huh-7-HBP cell line was digested and suspended, 100 μl of cell suspension was added to each well of a 96-well plate at a concentration of 2×10^5/ml, and incubated overnight. 10 μl of drug was added to each well according to the pre-set dose, and each dose of each drug should be at least two replicate wells. After shaking gently, the cell suspension was put back into the incubator, and incubated for 1-24 h according to the specific situation. Nano-Glo@ LCS Dilution Buffer and Nano-Glo@ Live Cell Substrate two reagents in the Nano-Glo@Live Cell Assay System kit were mixed at a ratio of 20:1, and added to the cell plate to be tested at a ratio of 25 ul per 100 ul system. After shaking for 30 seconds, full wavelength luminosity was measured using BMG Labtech FLUOstar Omega ELIASA. The higher the luminescence value, the higher the HBP content of the target protein.
According to method 1, the degradation effect of target compounds I-X on HBV P protein at 5 different concentrations was determined.

HBV [2] = assay: Inhibition of HBV virus replication in HepAD38 cells (HBV DNA level in supernatant); type: cell-based, hepatitis B virus; details: for inhibition at 0.01 µM / inhibition at 0.1 µM / inhibition at 1 µM / inhibition at 10 µM: Hepatitis B virus, HepAD38 cell line, read-out: Antiviral activity of the compound at different concentrations; for inhibition at 1 µM: 1000 nM; for inhibition at 10 µM: 10000 nM; for inhibition of virus replication: all tested dose levels 10 nM, P≤0.001; for inhibitory effect on virus replication: after 7 days, TPD00203 each dose group (3.75 nM, 100 nM, 5 μM, 100 μM), ETV 3.75 nM
Description: In vitro cell model 2: Stable toxigenic HepAD38 cells.
(§1) Positive drug control: entecavir (ETV).
(§2) Experimental procedure: HepG2.2.15 cells and stable toxigenic HepAD38 cells were divided into six experimental groups. The number of cells in each well was 7×10^4, and the amount of medium in each well was 500 μl. The first group was a blank control, the second group was a positive control, and 3.75 nM ETV was added; the third to sixth groups were added with 3.75 nM, 100 nM, 5 μM and 100 μM compound (I, TPD00203). The supernatant was collected on the 3rd day after administration and the HBV DNA level in the supernatant was detected. On the seventh day, the supernatant was collected again and the cells were pelleted, and the level of HBV DNA in the supernatant was detected.
After the preliminary evaluation of the virus-inhibiting effect of TPD00203, the inhibitory effects of the same dose of TPD00203 and ETV were determined in HepAD38 cell line. ETV and TPD00203 were 4 dose groups of 10 nM, 100 nM, 1 μM, and 10 μM.
The inhibitory activity of compounds (I-X) on the virus in HepAD38 cell line was determined by the same method as in Example 6, and the results were shown in the following table.

HBV [3] = assay: Inhibition of HBV virus replication in HepG2.2.15 cells (HBV DNA level in supernatant); type: cell-based, hepatitis B virus; details: after 7 days of administration, P≤0.001 vs blank group
Description: In vitro cell model 1: HepG2 cells transfected with hepatitis B virus (HBV), namely HepG2 2.2.15 cells.
as §1, §2

[4] = HepAD38 cells, 7 days, 100 nM, 1 μM, 10 μM

T2 sequence (P03156 whole entry): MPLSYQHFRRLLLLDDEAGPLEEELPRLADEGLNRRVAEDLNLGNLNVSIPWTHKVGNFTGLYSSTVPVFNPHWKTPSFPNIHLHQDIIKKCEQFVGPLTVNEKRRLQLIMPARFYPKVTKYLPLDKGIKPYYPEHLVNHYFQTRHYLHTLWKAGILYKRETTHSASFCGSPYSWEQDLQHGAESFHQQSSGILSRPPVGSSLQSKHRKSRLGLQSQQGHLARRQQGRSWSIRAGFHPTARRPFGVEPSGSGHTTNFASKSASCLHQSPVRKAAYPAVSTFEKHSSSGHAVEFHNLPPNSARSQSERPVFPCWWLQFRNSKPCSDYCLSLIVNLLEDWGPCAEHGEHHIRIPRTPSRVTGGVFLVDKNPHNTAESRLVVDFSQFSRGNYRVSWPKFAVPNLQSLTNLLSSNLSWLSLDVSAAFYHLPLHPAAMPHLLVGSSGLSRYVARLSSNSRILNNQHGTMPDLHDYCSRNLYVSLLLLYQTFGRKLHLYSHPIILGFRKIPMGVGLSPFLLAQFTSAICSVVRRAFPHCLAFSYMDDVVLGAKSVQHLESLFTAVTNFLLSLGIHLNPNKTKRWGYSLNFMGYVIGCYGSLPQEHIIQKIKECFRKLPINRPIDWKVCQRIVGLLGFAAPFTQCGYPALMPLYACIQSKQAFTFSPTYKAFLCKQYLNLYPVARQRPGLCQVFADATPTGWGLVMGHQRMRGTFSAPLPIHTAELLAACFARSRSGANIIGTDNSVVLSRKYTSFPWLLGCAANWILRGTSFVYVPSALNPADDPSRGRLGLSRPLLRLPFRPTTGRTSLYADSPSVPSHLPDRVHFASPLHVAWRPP
T1 sequence (P03156 whole entry): as above

| Structure (SMILES) | effect of proteasome inhibitor on drug-induced P protein degradation (HBV P protein; Huh7 cells, MG132 final concentration 10 μM added 24 hours after transfection, with 10 μM TPD00203) | inhibition at 0.1 µM [1] [%] | inhibition at 0.3 µM [1] [%] | inhibition at 1 µM [1] [%] | inhibition at 3 µM [1] [%] | inhibition at 10 µM [1] [%] | inhibition at 0.01 µM (HBV [2]; 10 nM) [%] | inhibition at 0.1 µM (HBV [2]; 100 nM) [%] | inhibition at 1 µM (HBV [2]) [%] | inhibition at 10 µM (HBV [2]) [%] | inhibitory effect on virus replication (HBV [3]; 3.75 nM) | inhibition of virus replication (HBV [2]; [4]) | inhibitory effect on virus replication (HBV [2]; HepAD38 cells) | P protein degradation (Western Blot) (HBV P protein; Huh7 cells transfected with flag-Polymerase plasmid, 10 μM TPD00203, 36 hours after transfection) | inhibitory effect on virus replication (HBV [3]; 5 μM) | inhibitory effect on virus replication (HBV [3]; 100 μM) | virus-inhibiting effect compared with ETV at the same dose (HBV [2]; HepAD38 cells, 7 days, 10 nM, 100 nM, 1 μM, 10 μM) |
| --- | --- | --- | --- | --- | --- | --- | --- | --- | --- | --- | --- | --- | --- | --- | --- | --- | --- |
| CC(C)C[C@@H](C=O)NC(=O)[C@H](CC(C)C)NC(=O)[C@H](CC(C)C)NC(=O)OCc1ccccc1 [MG132, reference compound] (Cbz-Leu-Leu-Leu-aldehyde) | inhibited drug degradation | – | – | – | – | – | – | – | – | – | – | – | – | – | – | – | – |
| C=C1[C@H](CNC(=O)CN2CCC(CCCC(=O)N[C@H](C(=O)N3C[C@H](O)C[C@H]3C(=O)NCc3ccc(-c4scnc4C)cc3)C(C)(C)C)CC2)[C@H](O)C[C@@H]1n1cnc2c(=O)[nH]c(N)nc21 [VIII] | – | < 30 | < 30 | 30 to 70 | 30 to 70 | > 70 | 30 to 60 | 30 to 60 | 30 to 60 | > 60 | – | – | – | – | – | – | – |
| C=C1[C@H](CNC(=O)CCCCCCCCC(=O)N[C@H](C(=O)N2C[C@H](O)C[C@H]2C(=O)NCc2ccc(-c3scnc3C)cc2)C(C)(C)C)[C@H](O)C[C@@H]1n1cnc2c(=O)[nH]c(N)nc21 [Compound VI, N1-(((1R,3S)-3-(2-amino-6-oxo-1,6-dihydro-9H-purin-9-yl)-5-hydroxy-2-methylenecyclopentyl)methyl)-N10-((S)-1-((2S,4R)-4-hydroxy-2-((4-(4-methylthiazol-5-yl)benzyl)carbamoyl)pyrrolidin-1-yl)-3,3-dimethyl-1-oxobutan-2-yl) decanoic acid diamide] | – | < 30 | 30 to 70 | 30 to 70 | > 70 | > 70 | 10 to 30 | 30 to 60 | > 60 | > 60 | – | – | – | – | – | – | – |
| C=C1[C@H](CO)[C@@H](O)C[C@@H]1n1cnc2c(=O)[nH]c(N)nc21 [entecavir, reference compound] | – | – | – | – | – | – | – | – | – | – | significant inhibitory effect on virus replication | significantly inhibit virus replication | significant inhibitory effect on virus replication | – | – | – | – |
| C=C1[C@H](CO)[C@H](O)C[C@@H]1n1cnc2c(OCCOCCOCCCC(=O)N[C@H](C(=O)N3C[C@H](O)C[C@H]3C(=O)NCc3ccc(-c4scnc4C)cc3)C(C)(C)C)nc(N)nc21 [Compound V] | – | < 30 | 30 to 70 | 30 to 70 | 30 to 70 | 30 to 70 | 10 to 30 | 30 to 60 | 30 to 60 | 30 to 60 | – | – | – | – | – | – | – |
| C=C1[C@H](CNC(=O)CN2CCC(OCCC(=O)N[C@H](C(=O)N3C[C@H](O)C[C@H]3C(=O)NCc3ccc(-c4scnc4C)cc3)C(C)(C)C)CC2)[C@H](O)C[C@@H]1n1cnc2c(=O)[nH]c(N)nc21 [IX] | – | – | – | – | – | – | 30 to 60 | 30 to 60 | > 60 | > 60 | – | – | – | – | – | – | – |
| C=C1[C@H](CO)[C@H](O)C[C@@H]1n1cnc2c(OCCN3CCC(CCCC(=O)N[C@H](C(=O)N4C[C@H](O)C[C@H]4C(=O)NCc4ccc(-c5scnc5C)cc4)C(C)(C)C)CC3)nc(N)nc21 [III] | – | < 30 | < 30 | 30 to 70 | 30 to 70 | > 70 | > 60 | > 60 | > 60 | > 60 | – | – | – | – | – | – | – |
| C=C1[C@H](CO)[C@H](O)C[C@@H]1n1cnc2c(OCCN3CCN(CCCC(=O)N[C@H](C(=O)N4C[C@H](O)C[C@H]4C(=O)NCc4ccc(-c5scnc5C)cc4)C(C)(C)C)CC3)nc(N)nc21 [II] | – | < 30 | < 30 | < 30 | 30 to 70 | 30 to 70 | 10 to 30 | 10 to 30 | 30 to 60 | > 60 | – | – | – | – | – | – | – |
| C=C1[C@H](CO)[C@H](O)C[C@@H]1n1cnc2c(OCCCCCCCCCC(=O)N[C@H](C(=O)N3C[C@H](O)C[C@H]3C(=O)NCc3ccc(-c4scnc4C)cc3)C(C)(C)C)nc(N)nc21 [Compound I] | – | < 30 | 30 to 70 | 30 to 70 | > 70 | > 70 | > 60 | > 60 | > 60 | > 60 | significant inhibition of viral replication | significantly inhibit virus replication | significant inhibitory effect on virus replication | promote P protein degradation | significant inhibition of viral replication | significant inhibition of viral replication | better virus-inhibiting effect than ETV |
| C=C1[C@H](CNC(=O)CN2CCN(CCCC(=O)N[C@H](C(=O)N3C[C@H](O)C[C@H]3C(=O)NCc3ccc(-c4scnc4C)cc3)C(C)(C)C)CC2)[C@H](O)C[C@@H]1n1cnc2c(=O)[nH]c(N)nc21 [Compound VII] | – | < 30 | < 30 | < 30 | 30 to 70 | 30 to 70 | 10 to 30 | 10 to 30 | 30 to 60 | 30 to 60 | – | – | – | – | – | – | – |
